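Compound exposure: 48 hours, 5 concentrations, 96-well plates. The concentration for 50% growth inhibition is given as GI50. At the TGI there is no net growth.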
Legend:
Assay in all cases: NCI anticancer screen, dose series, 48 h
[1] = system: SF-539 CNS
[2] = system: SNB-19 CNS
[3] = system: COLO 205 colon
[4] = system: NCI-H522 lung
[5] = system: UO-31 renal
[6] = system: HOP-92 NSCLC
[7] = system: SF-295 CNS
[8] = system: NCI-H23 lung
[9] = system: KM12 colon
[10] = system: HT29 colon

With `Cc1ccc2c(C(C[N+](=O)[O-])c3ccccc3)c(-c3ccccc3)[nH]c2c1` (stereo not given) the GI50 [1] was 22.8 µM, the TGI [1] was greater than 95 µM and the GI50 [2] was 43.7 µM. For the same compound, the TGI [2] was greater than 95 µM, the GI50 [3] was 21.8 µM and the TGI [3] was greater than 95 µM. For the same compound, the GI50 [4] was 3.17 µM, the TGI [4] was greater than 95 µM and the GI50 [5] was 15.4 µM. The TGI [5] was greater than 95 µM, the GI50 [6] was 11.8 µM and the TGI [6] was greater than 95 µM. It also gave a GI50 [7] of 36.7 µM, a TGI [7] greater than 95 µM and a GI50 [8] of 47 µM. It also gave a TGI [8] greater than 95 µM, a GI50 [9] of 21.6 µM and a TGI [9] greater than 95 µM. The GI50 [10] was 20.9 µM and the TGI [10] was greater than 95 µM.
In the case of `CCCCN(CC)C(=O)C(=O)Cc1nc2ccc(C(=O)c3ccccc3)cc2[nH]c1=O`, the TGI [1] is reported as greater than 100 µM, the TGI [2] is reported as greater than 100 µM and the TGI [3] is reported as greater than 100 µM. For the same compound, the TGI [4] was 75 µM, the TGI [5] was greater than 100 µM and the TGI [6] was greater than 100 µM. It also gave a TGI [7] greater than 100 µM, a TGI [8] greater than 100 µM and a TGI [9] greater than 100 µM. It also gave a TGI [10] greater than 100 µM.
Compound `O=[N+]([O-])c1nccn1CC(O)c1ccccc1` (stereo not given) has a TGI [1] greater than 100 µM, a TGI [2] greater than 100 µM and a TGI [3] greater than 100 µM. For the same compound, the TGI [4] was greater than 100 µM, the TGI [5] was greater than 100 µM and the TGI [6] was greater than 100 µM. It also gave a TGI [7] greater than 100 µM, a TGI [8] greater than 100 µM and a TGI [9] greater than 100 µM. The TGI [10] was greater than 100 µM.
`O=C(c1c(F)c(F)c(F)c(F)c1F)c1c(F)c(F)c(F)c(F)c1F` gave a TGI [1] of 2.69 µM, a TGI [2] of 16.3 µM and a TGI [3] of 3.28 µM. It also gave a TGI [4] of 0.392 µM, a TGI [5] of 2.64 µM and a TGI [6] of 3.43 µM. It also gave a TGI [7] of 6.44 µM, a TGI [8] of 7.87 µM and a TGI [9] of 2.04 µM. It also gave a TGI [10] of 3.08 µM.
`CC(Oc1ccc2c(-c3ccc(Cl)cc3)cc(=O)oc2c1)C(=O)O` (stereo not given) showed a TGI [1] greater than 100 µM, a TGI [2] greater than 100 µM and a TGI [3] greater than 100 µM. It also gave a TGI [4] greater than 100 µM, a TGI [5] greater than 100 µM and a TGI [6] greater than 100 µM. It also gave a TGI [7] greater than 100 µM, a TGI [8] greater than 100 µM and a TGI [9] greater than 100 µM. The TGI [10] was greater than 100 µM.
For `COc1ccc2cc(-c3cnc4nonc4n3)ccc2c1`, the GI50 [1] was 0.825 µM, the TGI [1] was 4.88 µM and the GI50 [2] was 4.37 µM. For the same compound, the TGI [2] was greater than 100 µM, the GI50 [3] was 3.12 µM and the TGI [3] was greater than 100 µM. The GI50 [4] was 1.29 µM, the TGI [4] was greater than 100 µM and the GI50 [5] was 3.23 µM. For the same compound, the TGI [5] was greater than 100 µM, the GI50 [6] was 16.1 µM and the TGI [6] was greater than 100 µM. The GI50 [7] was 2.08 µM, the TGI [7] was greater than 100 µM and the GI50 [8] was 4.49 µM. It also gave a TGI [8] greater than 100 µM, a GI50 [9] of 2.03 µM and a TGI [9] greater than 100 µM. For the same compound, the GI50 [10] was 2.97 µM and the TGI [10] was greater than 100 µM.
With `O=S1(=O)c2ccccc2N(O)C2=NCCN21` the TGI [1] was greater than 100 µM, the TGI [2] was greater than 100 µM and the TGI [3] was greater than 100 µM. The TGI [4] was greater than 100 µM, the TGI [5] was greater than 100 µM and the TGI [6] was greater than 100 µM. For the same compound, the TGI [7] was greater than 100 µM, the TGI [8] was greater than 100 µM and the TGI [9] was greater than 100 µM. It also gave a TGI [10] greater than 100 µM.
In the case of `COC(=O)CCC(=O)Nc1ccc(Cl)cc1C`, the TGI [1] is reported as greater than 100 µM, the TGI [2] is reported as greater than 100 µM and the TGI [3] is reported as greater than 100 µM. The TGI [4] was greater than 100 µM, the TGI [5] was greater than 100 µM and the TGI [6] was greater than 100 µM. It also gave a TGI [7] greater than 100 µM, a TGI [8] greater than 100 µM and a TGI [9] greater than 100 µM. For the same compound, the TGI [10] was greater than 100 µM.
With `[N-]=[N+]=NCN1C(=O)C2C3C=CC(C2C1=O)C1C2C(=O)N(CN=[N+]=[N-])C(=O)C2C31` (stereo not given) the TGI [1] was greater than 100 µM, the TGI [2] was greater than 100 µM and the TGI [3] was greater than 100 µM. The TGI [4] was greater than 100 µM, the TGI [5] was greater than 100 µM and the TGI [6] was greater than 100 µM. For the same compound, the TGI [7] was greater than 100 µM, the TGI [8] was greater than 100 µM and the TGI [9] was greater than 100 µM. For the same compound, the TGI [10] was greater than 100 µM.

Reference: PubChem BioAssay (NCI)
